What was measured:
[1] = tested on: carrageenin induced paw edema; test: Antiinflammatory effect on carrageenin induced paw edema (Experiments 3, 8); assay type: in vivo, Wistar male rats; settings: inhibition rate in oral administration = 1.00
Procedure: The antiinflammatory effect of the test compositions in Experiment 1 was determined by an effect on carrageenin induced paw edema. The experiment was performed using 8 Wistar male rats weighing approximately 170 g per one group. After previously measuring the volume of left hind paw, 50 mg each of the test compositions (stored at room temperature for one month after the preparation) was applied twice, left hind paw of the rat, 2 hours and 1 hour before injection of an inflammatory agent. As the inflammatory agent, 0.1 ml of a 1% carrageenin solution was subcutaneously injected at the left hind paw. The volume of the left hind paw was measured 3 hours after and a swelling was determined based on the volume before injecting the inflammatory agent. A group in which no test composition was applied was made a control group and the inhibition rate was calculated based thereon as follows. [formula]
The antiinfammatory effect was examined with the test compositions of Experiment 7, in a manner similar to Experiment 3.

[2] = tested on: carrageenin induced paw edema; settings: 5 mg/kg, Folia Pharmacologica Japonica vol. 70, page 543 (1974); cited from earlier work

CC(C(=O)O)c1cccc(C(=O)c2ccccc2)c1 (centres unmarked) [Ketoprofen]
Potency Ratio (Table 3) [1]: 1.00 | Inhibition Rate, Oral Administration (Table 3) [2]: 45.9%
